The values that follow come from patent EP4818168A1, “FUSED RING COMPOUND, PHARMACEUTICAL COMPOSITION THEREOF AND USE THEREOF” (priority 2023, dated 2025).

Broadly, the IC50 is the concentration at which inhibition is half-maximal.

For assay [1], the target named is T1, AURKA (Homo sapiens, UniProt O14965).
T1 construct: endogenous in cells; host or cells: Jurkat cells
T1 sequence (O14965 1-403): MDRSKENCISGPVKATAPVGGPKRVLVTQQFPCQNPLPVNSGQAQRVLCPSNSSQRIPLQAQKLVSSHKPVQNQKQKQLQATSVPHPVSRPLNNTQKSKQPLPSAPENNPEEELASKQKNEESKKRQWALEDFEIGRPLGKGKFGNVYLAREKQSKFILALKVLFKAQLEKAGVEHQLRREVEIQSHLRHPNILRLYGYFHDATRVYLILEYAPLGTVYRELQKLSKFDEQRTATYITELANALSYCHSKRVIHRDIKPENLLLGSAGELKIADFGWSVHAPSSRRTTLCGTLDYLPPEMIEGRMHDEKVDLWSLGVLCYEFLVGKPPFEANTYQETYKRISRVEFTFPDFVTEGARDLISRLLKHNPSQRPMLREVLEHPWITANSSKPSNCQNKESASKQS
It is filed as cell-based. Conditions: Jurkat cells, 24 h, Table 2. The source says:
WB is a classical biochemical experimental method used to detect the abundance of a target protein in a sample of cells or biological tissue. It relies on specific antigen-antibody binding to detect protein signals from the sample processed by gel electrophoresis: the protein specifically binds to a primary antibody at an epitope; the primary antibody is then conjugated with a secondary antibody to amplify the signal cascade; the signal is read out by chemiluminescent or fluorescent detection. The intracellular protein content is ultimately characterized by the intensity of the optical signals. […] The DC50 value can be calculated by curve fitting of the protein WB exposure signals.
The experimental procedure is as follows: • 1. Seed Jurkat cells into a 12-well plate at 1×10^6 cells/500 µL/well. • 2. Mix the culture medium with the compound to a concentration that is twice the desired final concentration. […] Transfer the cell suspension to a centrifuge tube. Rinse the 12-well plate with PBS and then transfer the PBS from the plate to the same centrifuge tube. Centrifuge at 3000 rpm for 5 min at room temperature. Aspirate the supernatant using a vacuum pump. […] Lyse on ice for 20 min. • 4. Centrifuge the lysed sample at 13000 rpm for 20 min at 4°C. Mix the supernatant with 5× protein loading buffer. Boil at 100°C for 5 min and then cool. Store the denatured protein sample at -20°C. • 5. […] Run electrophoresis at 80 V for 20 min, and then at 120 V constant voltage for 60 min. • 6. Transfer the protein onto a nitrocellulose membrane in an ice bath at 250 mA constant current for 90 min. • 7. […] Incubate with a primary antibody overnight at 4°C. • 9. […] Incubate with a secondary antibody for 1-2 h at room temperature. • 10. […] Expose and image the membrane using a LICOR Odyssey DLx imager.

Assay [2] concerns H82 cells. The assay can be described thus: cells. It is filed as cell-based. The protocol:
CellTiter-Glo (CTG) is a rapid cell viability test method based on ATP detection. […] Adenosine triphosphate (ATP) participates in various enzymatic reactions in organisms and is an indicator of living cell metabolism. Its content directly reflects the number of living cells and cell status. During the experiment, equal volume of CTG reagent is added to the cultured cells to measure the luminescence value. The chemiluminescent signal value is proportional to the amount of ATP, thus reflecting the number of viable cells. Therefore, cell viability can be obtained by detecting the ATP content. Compounds that affect cell viability will inhibit cell viability in a concentration-dependent manner, allowing a curve to be fitted to obtain the IC50 value.
The experimental procedure is as follows: • 11. Place the cell suspension in a 15 mL centrifuge tube, centrifuge at 1000 rpm for 5 min at room temperature, discard the supernatant, and collect the cell pellet. • 12. Resuspend the cell pellet with preheated complete cell culture medium (RPMI1640+10%FBS+1%PS), and use a Countess® automated cell counter to detect cell viability and density. […] Transfer the compound solution to a 96-well plate seeded with cells (final concentration of DMSO 0.1%), and place in a cell incubator at 37°C, 5% CO2 for 6 days. • 15. […] Protect from light during the whole process. Perform optical signal readings using a SpectraMax i3x reader. • 16. Data analysis: Remaining activity (%) = 100% * (1 - ((LumDMSO - Lummedium) - Lumsample) / (LumDMSO - LumPBS/medium)). Use GraphPad Prism 9.0 software to draw an S-shaped dose-survival rate curve and calculate the IC50 value using a nonlinear regression model.

Where [3] appears, read: Homo sapiens, NCI-H82, read-out: IC50 in H82 Cells.
Where [4] appears, read: Homo sapiens, NCI-H82, H82 cells, 4000 cells/well, CellTiter-Glo, read-out: IC50 in H82 Cells.

Where two headings read alike, the source gives them in different places.

For `O=C1CCN(c2ccc(N3CCC4(CC3)CC(N3CCN(c5ccc(Nc6ncc7c(n6)-c6ccc(Cl)cc6C(c6c(F)cccc6F)=NC7)cc5)CC3)CO4)nc2)C(=O)N1` (racemic) [Compound A340], in assay [1], the “Percentage of AURKA Degradation Induced by 100 nM Compound in Jurkat Cells” value (“Percentage … by 100 nM Compound in Jurkat Cells” for short) is given as “+++ (Degradation > 70%)” and the “Percentage of AURKA Degradation Induced by 1 µM Compound in Jurkat Cells” value (from here on “Percentage … by 1 µM Compound in Jurkat Cells”) was “+++ (Degradation > 70%)”. Further, in assay [2] (setting [3]), the IC50 is less than 1 µM.
Regarding `O=C1CCN(c2ccc(N3CCOC4(CC(N5CCN(C67CC(Nc8ncc9c(n8)-c8ccc(Cl)cc8C(c8c(F)cccc8F)=NC9)(C6)C7)C(=O)C5)C4)C3)nc2)C(=O)N1` (single isomer, unassigned) [Compound A348], in assay [1], the “Percentage … by 100 nM Compound in Jurkat Cells” value is listed as “+++ (Degradation > 70%)” and the “Percentage … by 1 µM Compound in Jurkat Cells” value is reported as “++ (30% < Degradation ≤ 70%)”. Moreover, the IC50 in assay [2] (setting [3]) was less than 1 µM.
For the molecule `O=C1CCN(c2ccc(N3CCOC4(CC(N5CCN(C67CC(Nc8ncc9c(n8)-c8ccc(Cl)cc8C(c8c(F)cccc8F)=NC9)(C6)C7)C(=O)C5)C4)C3)nc2)C(=O)N1` (single isomer, unassigned) [Compound A349], in assay [1], the “Percentage … by 100 nM Compound in Jurkat Cells” value was “++ (30% < Degradation ≤ 70%)” and the “Percentage … by 1 µM Compound in Jurkat Cells” value is “++ (30% < Degradation ≤ 70%)”. Also, the IC50 in assay [2] (read-out: IC50 in H82 Cells, H82 cells, 4000 cells/well, CellTiter-Glo) is less than 1 µM.
In the case of `O=C1CCN(c2ccc(N3CCC4(CC3)CC(NC(=O)c3ccc(Nc5ncc6c(n5)-c5ccc(Cl)cc5C(c5c(F)cccc5F)=NC6)cc3)C4)cc2F)C(=O)N1` [Compound A96], in assay [1], the “Percentage … by 100 nM Compound in Jurkat Cells” value is listed as “++ (30% < Degradation ≤ 70%)” and the “Percentage … by 1 µM Compound in Jurkat Cells” value is “+++ (Degradation > 70%)”. The IC50 in assay [2] (setting [4]) was less than 1 µM.
`O=C1CCN(c2ccc(N3CCN(CCC#Cc4cccc(Nc5ncc6c(n5)-c5ccc(Cl)cc5C(c5c(F)cccc5F)=NC6)c4)CC3)cc2)C(=O)N1` [Compound A97]: in assay [1], the “Percentage … by 100 nM Compound in Jurkat Cells” value is “+ (Degradation ≤ 30%)” and the “Percentage … by 1 µM Compound in Jurkat Cells” value is given as “+ (Degradation ≤ 30%)”. For the same molecule, the IC50 in assay [2] (setting [4]) was less than 1 µM.
For the molecule `O=C1CCN(c2cccc(N3CCN(CC#Cc4cccc(Nc5ncc6c(n5)-c5ccc(Cl)cc5C(c5c(F)cccc5F)=NC6)c4)CC3)c2)C(=O)N1` [Compound A98], in assay [2] (setting [3]), the IC50 was less than 1 µM.
With `O=C1CCN(c2ccc(N3CCN(CC#Cc4cccc(Nc5ncc6c(n5)-c5ccc(Cl)cc5C(c5c(F)cccc5F)=NC6)c4)CC3)cc2)C(=O)N1` [Compound A99], in assay [1], the “Percentage … by 100 nM Compound in Jurkat Cells” value was “++ (30% < Degradation ≤ 70%)” and the “Percentage … by 1 µM Compound in Jurkat Cells” value is reported as “+ (Degradation ≤ 30%)”. The IC50 in assay [2] (setting [4]) is less than 1 µM.
With `O=C1CCN(c2cccc(N3CCN(CCC#Cc4cccc(Nc5ncc6c(n5)-c5ccc(Cl)cc5C(c5c(F)cccc5F)=NC6)c4)CC3)c2)C(=O)N1` [Compound A100], in assay [1], the “Percentage … by 100 nM Compound in Jurkat Cells” value is “++ (30% < Degradation ≤ 70%)” and the “Percentage … by 1 µM Compound in Jurkat Cells” value is “++ (30% < Degradation ≤ 70%)”. For the same molecule, in assay [2] (setting [4]), the IC50 is less than 1 µM.
On to `O=C1CCN(c2ccc(N3CC(N4CCN(Cc5ccc(Nc6ncc7c(n6)-c6ccc(Cl)cc6C(c6c(F)cccc6F)=NC7)cc5)CC4)C3)nc2)C(=O)N1` [Compound A101], for which, in assay [1], the “Percentage … by 100 nM Compound in Jurkat Cells” value was “+++ (Degradation > 70%)” and the “Percentage … by 1 µM Compound in Jurkat Cells” value is listed as “+++ (Degradation > 70%)”. Also, the IC50 in assay [2] (setting [4]) is less than 1 µM.
Take `O=C1CCN(c2ccc(N3CCN(CCCOc4cccc(Nc5ncc6c(n5)-c5ccc(Cl)cc5C(c5c(F)cccc5F)=NC6)c4)CC3)cc2)C(=O)N1` [Compound A102]: in assay [1], the “Percentage … by 100 nM Compound in Jurkat Cells” value was “+ (Degradation ≤ 30%)” and the “Percentage … by 1 µM Compound in Jurkat Cells” value is recorded as “+ (Degradation ≤ 30%)”. Moreover, in assay [2] (setting [4]), the IC50 is less than 1 µM.
Turning to `O=C1CCN(c2ccc(N3CCN(CCC(=O)Nc4ccc(Nc5ncc6c(n5)-c5ccc(Cl)cc5C(c5c(F)cccc5F)=NC6)cc4)CC3)cc2)C(=O)N1` [Compound A104], in assay [1], the “Percentage … by 100 nM Compound in Jurkat Cells” value is “+++ (Degradation > 70%)” and the “Percentage … by 1 µM Compound in Jurkat Cells” value is “+++ (Degradation > 70%)”. Also, the IC50 in assay [2] (setting [4]) was less than 1 µM.
On to `Cn1c(CN2CCN(c3ccc(N4CCC(=O)NC4=O)cc3)CC2)cnc1-c1ccc(Nc2ncc3c(n2)-c2ccc(Cl)cc2C(c2c(F)cccc2F)=NC3)cc1` [Compound A106], for which, in assay [1], the “Percentage … by 100 nM Compound in Jurkat Cells” value is listed as “+++ (Degradation > 70%)” and the “Percentage … by 1 µM Compound in Jurkat Cells” value is given as “+++ (Degradation > 70%)”. Besides, the IC50 in assay [2] (setting [4]) was less than 1 µM.
Turning to `O=C1CCN(c2ccc(NCCN3CCn4c(cnc4-c4ccc(Nc5ncc6c(n5)-c5ccc(Cl)cc5C(c5c(F)cccc5F)=NC6)cc4)C3)cc2)C(=O)N1` [Compound A107], in assay [1], the “Percentage … by 100 nM Compound in Jurkat Cells” value is listed as “++ (30% < Degradation ≤ 70%)” and the “Percentage … by 1 µM Compound in Jurkat Cells” value was “++ (30% < Degradation ≤ 70%)”. In addition, in assay [2] (setting [4]), the IC50 was less than 1 µM.
With `O=C1CCN(c2ccc(N3CCC4(CC3)CC(NC(=O)c3ccc(Nc5ncc6c(n5)-c5ccc(F)cc5C(c5c(F)cccc5F)=NC6)cc3)C4)nc2)C(=O)N1` [Compound A109], in assay [1], the “Percentage … by 100 nM Compound in Jurkat Cells” value is “++ (30% < Degradation ≤ 70%)” and the “Percentage … by 1 µM Compound in Jurkat Cells” value is recorded as “++ (30% < Degradation ≤ 70%)”. Further, the IC50 in assay [2] (setting [4]) is less than 1 µM.
`Cc1cc(N2CCC3(CC2)CC(NC(=O)c2ccc(Nc4ncc5c(n4)-c4ccc(Cl)cc4C(c4c(F)cccc4F)=NC5)cc2)C3)ncc1N1CCC(=O)NC1=O` [Compound A110]: in assay [1], the “Percentage … by 100 nM Compound in Jurkat Cells” value is on record as “++ (30% < Degradation ≤ 70%)” and the “Percentage … by 1 µM Compound in Jurkat Cells” value is on record as “++ (30% < Degradation ≤ 70%)”. Besides, in assay [2] (setting [4]), the IC50 was less than 1 µM.
For the molecule `O=C1CCN(c2cccc(C#CCN3CCn4c(cnc4-c4ccc(Nc5ncc6c(n5)-c5ccc(Cl)cc5C(c5c(F)cccc5F)=NC6)cc4)C3)c2)C(=O)N1` [Compound A145], in assay [2] (setting [4]), the IC50 is less than 1 µM.
With `COc1cc(Nc2ncc3c(n2)-c2ccc(Cl)cc2C(c2c(F)cccc2F)=NC3)ccc1N1CC(F)(CN2CCN(c3ccc(N4CCC(=O)NC4=O)cn3)CC2)C1` [Compound A289], in assay [1], the “Percentage … by 100 nM Compound in Jurkat Cells” value is “+++ (Degradation > 70%)” and the “Percentage … by 1 µM Compound in Jurkat Cells” value is given as “+++ (Degradation > 70%)”.
For the molecule `O=C1CCN(c2ccc(N3CCC(N4CCN(c5ccc(Nc6ncc7c(n6)-c6ccc(Cl)cc6C(c6c(F)cccc6F)=NC7)cc5)CC4=O)CC3)nc2)C(=O)N1` [Compound A295], in assay [1], the “Percentage … by 100 nM Compound in Jurkat Cells” value is on record as “+++ (Degradation > 70%)” and the “Percentage … by 1 µM Compound in Jurkat Cells” value is listed as “++ (30% < Degradation ≤ 70%)”.
On to `O=C1CCN(c2ccc(N3CCC(N4CCN(c5ccc(Nc6ncc7c(n6)-c6ccc(Cl)cc6C(C6CC6)=NC7)cc5)C(=O)C4)CC3)nc2)C(=O)N1` [Compound A328], for which, in assay [1], the “Percentage … by 100 nM Compound in Jurkat Cells” value is listed as “++ (30% < Degradation ≤ 70%)” and the “Percentage … by 1 µM Compound in Jurkat Cells” value is listed as “++ (30% < Degradation ≤ 70%)”.
